Where two headings read alike, the source gives them in different places.
Experiments:
[1] = system: P. falciparum 3D7 parasites; experiment: P. falciparum growth inhibition assay, 1-cycle (72 h treatment), SYBR DNA staining (library screen at 2 μg/mL and dose-response); type: cell-based, Plasmodium falciparum; details: for activity at 2 µg/mL: Plasmodium falciparum
[2] = system: T. gondii RH strain (RH-Tub-eYFP) tachyzoites; experiment: microbe, parasite or virus in culture; type: cell-based, Toxoplasma gondii; details: 72 h; for percent parasite growth at 2 µg/mL: Toxoplasma gondii
[3] = system: P. falciparum 3D7 parasites; experiment: P. falciparum growth inhibition assay, 2-cycle (120 h treatment), delayed-death screen and dose-response; type: cell-based, Plasmodium falciparum; details: for activity at 2 µg/mL: Plasmodium falciparum
[4] = library screen at 2 μg/mL, 72 h, % growth, replicate 1
[5] = library screen at 2 μg/mL, 72 h, % growth, replicate 2
[6] = library screen at 2 μg/mL, % growth, replicate 1
[7] = library screen at 2 μg/mL, % growth, replicate 2
[8] = library screen at 2 μg/mL, 120 h, % growth, replicate 1
[9] = library screen at 2 μg/mL, 120 h, % growth, replicate 2
[10] = P. falciparum 3D7, 72 h, parasite screen at 2 μg/mL, % growth, replicate 1
[11] = P. falciparum 3D7, 72 h, parasite screen at 2 μg/mL, % growth, replicate 2
[12] = T. gondii, parasite screen at 2 μg/mL, % growth, replicate 1
[13] = T. gondii, parasite screen at 2 μg/mL, % growth, replicate 2
[14] = P. falciparum 3D7, 120 h, parasite screen at 2 μg/mL, % growth, replicate 1
[15] = P. falciparum 3D7, 120 h, parasite screen at 2 μg/mL, % growth, replicate 2

SMILES	Pf_72h_%Growth_Rep1 [1, 4] [%]	Pf_72h_%Growth_Rep2 [1, 5] [%]	Tg_72h_%Growth_Rep1 [2, 6] [%]	Tg_72h_%Growth_Rep2 [2, 7] [%]	Pf_120h_%Growth_Rep1 [3, 8] [%]	Pf_120h_%Growth_Rep2 [3, 9] [%]	Pf_72h_%Growth_Rep1 [1, 10] [%]	Pf_72h_%Growth_Rep2 [1, 11] [%]	Tg_72h_%Growth_Rep1 [2, 12] [%]	Tg_72h_%Growth_Rep2 [2, 13] [%]	Pf_120h_%Growth_Rep1 [3, 14] [%]	Pf_120h_%Growth_Rep2 [3, 15] [%]	further results
C/C=C\C=C\[C@@H]1O[C@](O)([C@H](CC)C(=O)NC/C=C/C=C(\C)[C@@H](OC)[C@@H](C)[C@H]2C[C@@H](O)[C@@H](/C=C/C=C/C=C/C(=O)O)O2)[C@H](O)[C@H](O)C1(C)C [A 83016F]	83.31	85.46	147.54	91.91	83.40	76.05							
CCCCCCCCCC(=O)N[C@H]1[C@H](Oc2c3cc4cc2Oc2ccc(cc2Cl)[C@@H](O[C@@H]2O[C@H](CO)[C@@H](O)[C@H](O)[C@H]2NC(C)=O)[C@@H]2NC(=O)[C@H](NC(=O)[C@@H]4NC(=O)[C@H]4NC(=O)[C@H](Cc5ccc(c(Cl)c5)O3)NC(=O)[C@H](N)c3ccc(O)c(c3)Oc3cc(O)cc4c3)c3ccc(O)c(c3)-c3c(O[C@H]4O[C@H](CO)[C@@H](O)[C@H](O)[C@@H]4O)cc(O)cc3[C@@H](C(=O)O)NC2=O)O[C@H](CO)[C@@H](O)[C@@H]1O [Teicoplanin A2-3]													activity at 2 µg/mL ([1]; 3D7, 72 h, P. falciparum, 72 h, parasite screen 2 μg/mL, % growth, replicate 1, read-out: Pf_72h_%Growth_Rep1): 88.9%; activity at 2 µg/mL ([1]; 3D7, 72 h, P. falciparum, 72 h, parasite screen 2 μg/mL, % growth, replicate 2, read-out: Pf_72h_%Growth_Rep2): 128%; percent parasite growth at 2 µg/mL ([2]; T. gondii, parasite screen 2 μg/mL, % growth, replicate 1, read-out: Tg_72h_%Growth_Rep1): 112%; percent parasite growth at 2 µg/mL ([2]; T. gondii, parasite screen 2 μg/mL, % growth, replicate 2, read-out: Tg_72h_%Growth_Rep2): 84.1%; activity at 2 µg/mL ([3]; 3D7, 120 h, P. falciparum, 120 h, parasite screen 2 μg/mL, % growth, replicate 1, read-out: Pf_120h_%Growth_Rep1): 110%; activity at 2 µg/mL ([3]; 3D7, 120 h, P. falciparum, 120 h, parasite screen 2 μg/mL, % growth, replicate 2, read-out: Pf_120h_%Growth_Rep2): 97%
CCCC[C@H](O)[C@@H]1CC(OC)=CC(=O)O1 [BIA-P1067]							81.23	52.23	91.14	92.83	77.65	111.54	
C=C1CC[C@H]2C(C)(C)CCC[C@]2(C)[C@H]1C[C@@]12C[C@H]3C(=O)N4CCC[C@H]4C(=O)N3[C@@H]1Nc1ccccc12 [Drimentine C]													activity at 2 µg/mL ([1]; 3D7, library screen at 2 μg/mL, 72 h, % growth, replicate 1, read-out: Pf_72h_%Growth_Rep1): 85.2%; activity at 2 µg/mL ([1]; 3D7, library screen at 2 μg/mL, 72 h, % growth, replicate 2, read-out: Pf_72h_%Growth_Rep2): 87.9%; percent parasite growth at 2 µg/mL ([2]; library screen at 2 μg/mL, % growth, replicate 1, read-out: Tg_72h_%Growth_Rep1): 91.6%; percent parasite growth at 2 µg/mL ([2]; library screen at 2 μg/mL, % growth, replicate 2, read-out: Tg_72h_%Growth_Rep2): 73.3%; activity at 2 µg/mL ([3]; 3D7, library screen at 2 μg/mL, 120 h, % growth, replicate 1, read-out: Pf_120h_%Growth_Rep1): 78.4%; activity at 2 µg/mL ([3]; 3D7, library screen at 2 μg/mL, 120 h, % growth, replicate 2, read-out: Pf_120h_%Growth_Rep2): 103%
C[C@@H]1C[C@H]2CC[C@H](O2)[C@H](C)C(=O)O[C@@H](C)C[C@@H]2CC[C@@H](O2)[C@@H](C)C(=O)O[C@H](C)C[C@H]2CC[C@@H](O2)[C@H](C)C(=O)O[C@@H](C)C[C@@H]2CC[C@@H](O2)[C@@H](C)C(=O)O1 [BIA-N1270]							6.60	4.15	4.95	0.97	46.69	11.45	
C=C1[C@@H](C)[C@H]2[C@H](Cc3ccccc3)NC(=O)[C@]23[C@H](OC(C)=O)[C@@H]2O[C@H]2[C@@](C)(O)C(=O)[C@@H](C)C/C=C\[C@H]3[C@@H]1O [Epoxycytochalasin D, 19,20-]	5.59	1.64	2.15	1.47	6.52	-0.52							
COc1ccc2c(c1OC)C(=O)O[C@@H]2[C@H]1c2c(cc3c(c2OC)OCO3)CCN1C [BIA-N1938]							84.86	78.38	85.42	102.99	166.83	79.12	
CN1C(=O)[C@]23C[C@H]4C(C)(C)[C@]5(CNc6c5ccc5c6OC=CC(C)(C)O5)C[C@@]41CN2CC[C@@]3(C)O [Derquantel]	84.92	84.29	207.28	97.75	88.90	91.44							
COc1c(O)c(C)c(C)c(O)c1OC [BIA-H1651]													Pf_72h_%Growth_Rep1 ([1]; P. falciparum 3D7, 72 h, library screen at 2 μg/mL, % growth, replicate 1): 6.09%; Pf_72h_%Growth_Rep2 ([1]; P. falciparum 3D7, 72 h, library screen at 2 μg/mL, % growth, replicate 2): 2.27%; Tg_72h_%Growth_Rep1 ([2]; T. gondii RH, library screen at 2 μg/mL, % growth, replicate 1): 138.57%; Tg_72h_%Growth_Rep2 ([2]; T. gondii RH, library screen at 2 μg/mL, % growth, replicate 2): 100.12%; Pf_120h_%Growth_Rep1 ([3]; P. falciparum 3D7, 120 h, library screen at 2 μg/mL, % growth, replicate 1): 17.29%; Pf_120h_%Growth_Rep2 ([3]; P. falciparum 3D7, 120 h, library screen at 2 μg/mL, % growth, replicate 2): 12.27%
CN1C(=O)c2ccccc2NC(=O)[C@]12O[C@@H]2c1ccccc1 [Cyclopenin]													Pf_72h_%Growth_Rep1 ([1]; P. falciparum, 72 h, screen at 2 μg/mL, replicate 1): 83.83%; Pf_72h_%Growth_Rep2 ([1]; P. falciparum, 72 h, screen at 2 μg/mL, replicate 2): 77.00%; Tg_72h_%Growth_Rep1 ([2]; T. gondii, screen at 2 μg/mL, replicate 1): 136.91%; Tg_72h_%Growth_Rep2 ([2]; T. gondii, screen at 2 μg/mL, replicate 2): 103.54%; Pf_120h_%Growth_Rep1 ([3]; P. falciparum, 120 h, screen at 2 μg/mL, replicate 1): 83.48%; Pf_120h_%Growth_Rep2 ([3]; P. falciparum, 120 h, screen at 2 μg/mL, replicate 2): 80.30%

— paper PMC12396409, “Screening and hit evaluation of a microbial metabolite library against the pathogenic Plasmodium falciparum and Toxoplasma gondii parasites” (International Journal for Parasitology: Drugs and Drug …, 2025)
